{"source": "ChEMBL document CHEMBL1155289", "about": "“Stimulatory effect of apigenin-6-C-beta-L-fucopyranoside on insulin secretion and glycogen synthesis” (2009)", "assay_type_in_all_cases": "functional", "key": {"Rattus norvegicus [1]": {"system": "Rattus norvegicus", "experiment": "Antidiabetic activity against glucose loaded Wistar rat assessed as serum glucose level at 10 mg/kg, po after 15 mins by oral glucose tolerance test"}, "Rattus norvegicus [2]": {"system": "Rattus norvegicus", "experiment": "Antidiabetic activity against glucose loaded Wistar rat assessed as serum glucose level at 10 mg/kg, po after 30 mins by oral glucose tolerance test"}, "Rattus norvegicus [3]": {"system": "Rattus norvegicus", "experiment": "Antidiabetic activity against glucose loaded Wistar rat assessed as serum glucose level at 10 mg/kg, po by oral glucose tolerance test"}, "Rattus norvegicus [4]": {"system": "Rattus norvegicus", "experiment": "Antidiabetic activity against glucose loaded Wistar rat assessed as serum glucose level at 10 mg/kg, po after 60 mins by oral glucose tolerance test"}}}
{"compound": "Cc1cnc(C(=O)NCCc2ccc(S(=O)(=O)NC(=O)NC3CCCCC3)cc2)cn1", "note": "[GLIPIZIDE]", "values": [{"measurement": "Activity", "setting": "Rattus norvegicus [1]", "value": 160, "unit": "mg/dL"}, {"measurement": "Activity", "setting": "Rattus norvegicus [2]", "value": 143, "unit": "mg/dL"}, {"measurement": "Activity", "setting": "Rattus norvegicus [3]", "value": 120, "unit": "mg/dL"}, {"measurement": "Activity", "setting": "Rattus norvegicus [4]", "value": 123, "unit": "mg/dL"}]}
